# Experimental data: US20030109583A1 (priority 2001, published 2003)
# Read-outs that look alike come from different tables or passages of the source.
# How the values were obtained:
# [1] = system: Escherichia coli ATCC 25922; test: mouse septicemia model; type: in vivo, ICR male mice; settings: mortality recorded for 7 days, E. coli ATCC 25922 mouse septicemia
# Method: (§1) Mice were inoculated intraperitoneally with 2×10^5 cfu/mouse in 0.5 ml of Brain-Heart Infusion broth supplemented with 5% mucin. The compound was tested at 40, 20, 10, 5 and 2.5 mg/kg orally (PO) or at 20, 10, 5 and 2.5 mg/kg intravenously (IV) at 1 and 5 hours after bacterial inoculation. Controls included vehicle control (0.9% NaCl, 10 ml/kg) and an antibiotic control with ampicillin. Mortality was recorded for 7 days, and an ED50 was determined by non-linear regression.
# Pseudomonas fluorescens = settings: cited from earlier work
# Proteius mirabilis = settings: cited from earlier work
# Escherichia coli = settings: cited from earlier work
# Enterobacter sp. = settings: cited from earlier work
# Pseudomonas aeruginosa = settings: cited from earlier work
# [2] = system: Trichophyton mentagraphytes; settings: cited from earlier work
# [3] = system: Streptococcus pneumoniae PenS; test: in vitro MIC assay; type: cell-based; settings: activity = MIC<128 μg/ml
# Method: (§2) The ability of negamycin or deoxynegamycin, or pharmaceutically acceptable salts, prodrugs or isomers thereof, to treat bacterial infection was measured by in vitro assay described below. The compounds were kept in DMSO at 10 mg/ml and diluted into the test medium for the assay.
# (§3) The strains used for assaying negamycin include the following: Acinetobacter baumanii, Citrobacter freundii, Enterobacter aerogenes, Haemophilus influenzae, Moraxella catarrhalis, Staphylococcus aureus MRSA, Staphylococcus aureus GISA, Staphylococcus epidermis, Streptococcus pneumoniae PenR, Streptococcus pneumoniae PenS, Streptococcus pyogenes, Helicobacter pylori and E. faecium. The strains used for assaying deoxynegamycin include the following: Haemophilus influenzae, Staphylococcus aureus MRSA, Staphylococcus aureus GISA, Staphylococcus epidermis, Streptococcus pneumoniae PenR, Streptococcus pneumoniae PenS, Streptococcus pyogenes and E. facium.
# (§4) (1) Liquid Medium, Nutrient Broth and Mueller-Hinton Broth with 50% Human Serum
# (§5) Compounds were suspended in a DMSO solution containing 10 mg/ml of compound. The appropriate amount of compound was added to a well of the first column of a 96-well microtiter plate containing 100 μl of Nutrient Broth (NB) or Mueller-Hinton Broth with 50% human serum (MHB+HS), for S. pneumoniae the NB medium was supplemented with 3 or 5% lysed horse blood. The rest of the wells in the row had 50 μl of the same medium in each well. After adding the compound to the first well and mixing thoroughly, 50 μl was taken out, and mixed to the second well of the row. This operation was repeated until the well of column 11 was reached and, after mixing, 50 μl were discarded. […] A concentration gradient of two-fold dilution was achieved by this method. A distinct compound was added to the first column well of the next row of the microtiter plate, and the procedure was repeated until all the rows are used. The plate was then ready for inoculation.
# (§6) Bacterial strains were inoculated from a frozen stock on Mueller-Hinton Agar (Difco) or Blood Agar for S. pneumoniae and grown at 35° C. overnight. Cells were suspended in sterile saline to 0.5 McFarland standard. The inoculum was diluted approximately 1:1000 in the appropriate medium to reach an inoculum size of 10^5 cfu/ml (NB, NB supplemented with 3 or 5% lysed horse blood for S. pneumoniae, or MHB+HS). The diluted cell suspension was used to inoculate the microtiter plate containing two-fold dilution of the test compound. Each well of the microtiter plate received 50 μl of the cell suspension. The final volume was 100 μl (50 μl from the inoculum and 50 μl of the medium containing the compound).
# (§7) The plates were incubated at 35° C. for 16 to 20 hours, the minimal inhibitory concentration (MIC) was recorded and was defined as the lowest concentration of compound that there is no visible growth.
# (§8) (2) Solid Medium, Mueller-Hinton Agar with 50% Human Serum
# (§9) Compounds were suspended in a DMSO solution containing 10 mg/ml of compound. The appropriate amount of compound was added to melted Mueller-Hinton Agar with 50% human serum (MHA+HS) at 50° C. The medium has been prepared by adding human serum to a melted Mueller-Hinton Agar (MHA) at two fold the concentration. MHA+HS has 50% human serum and normal strength of MHA. The appropriate concentration of compound was added to 4 ml of melted MHA+HS, and poured in a 6 cm diameter petri dish, and the agar was allowed to solidify at room temperature. A set of petri dishes, each dish containing half the concentration of compound of the previously poured dish, was made and used to assess the MIC in solid medium.
# (§10) Bacterial strains were inoculated from a frozen stock on Mueller-Hinton Agar (Difco) or Blood Agar for S. pneumoniae and grown at 35° C. overnight. Cells are suspended in sterile saline to 0.5 McFarland standard. The inoculum was diluted approximately 1:10 in sterile saline water to obtain a bacterial suspension at 10^7 cfu/ml. […]
# [4] = system: Staphylococcus aureus GISA; test: in vitro MIC assay; type: cell-based; settings: activity = MIC<128 μg/ml
# Method: as §2, §3, §4, §5, §6, §7, §8, §9, §10
# Haemophilus influenzae = test: in vitro MIC assay; type: cell-based; settings: activity = MIC<128 μg/ml
# Method: as §2, §3, §4, §5, §6, §7, §8, §9, §10
# [5] = system: Streptococcus pneumoniae PenR; test: in vitro MIC assay; type: cell-based; settings: activity = MIC<128 μg/ml
# Method: as §2, §3, §4, §5, §6, §7, §8, §9, §10
# Streptococcus pyogenes = test: in vitro MIC assay; type: cell-based; settings: activity = MIC<128 μg/ml
# Method: as §2, §3, §4, §5, §6, §7, §8, §9, §10
# [6] = system: Staphylococcus aureus MRSA; test: in vitro MIC assay; type: cell-based; settings: activity = MIC<128 μg/ml
# Method: as §2, §3, §4, §5, §6, §7, §8, §9, §10
# E. faecium = test: in vitro MIC assay; type: cell-based; settings: activity = MIC<128 μg/ml
# Method: as §2, §3, §4, §5, §6, §7, §8, §9, §10
# Staphylococcus epidermis = test: in vitro MIC assay; type: cell-based; settings: activity = MIC<128 μg/ml
# Method: as §2, §3, §4, §5, §6, §7, §8, §9, §10
# Proteus rettgeri = settings: cited from earlier work
# Trichophyton tonsurans = settings: cited from earlier work
# Salmonella typhimurium = settings: cited from earlier work
# Salmonella enteriditis = settings: cited from earlier work
# Salmonella typhi = settings: cited from earlier work
# Shigella flexneri = settings: cited from earlier work
# Candida albicans = settings: cited from earlier work
# Cryptococcus neoformans = settings: cited from earlier work
# Proteus vulgaris = settings: cited from earlier work
# Serratia marcescens = settings: cited from earlier work
# Klebsiella pneumoniae = settings: cited from earlier work
# Herellea vaginicola = settings: cited from earlier work
# Enterobacter aerogenes [7] = settings: cited from earlier work
# Mycobacterium smegmatis = settings: cited from earlier work
# Staphylococcus aureus = settings: cited from earlier work
# Salmonella typhosa = settings: cited from earlier work
# Acinetobacter baumanii = test: in vitro MIC assay; type: cell-based; settings: Acinetobacter baumannii, activity = MIC<128 μg/ml
# Method: as §2, §3, §4, §5, §6, §7, §8, §9, §10
# Moraxella catarrhalis = test: in vitro MIC assay; type: cell-based; settings: activity = MIC<128 μg/ml
# Method: as §2, §3, §4, §5, §6, §7, §8, §9, §10
# Helicobacter pylori = test: in vitro MIC assay; type: cell-based; settings: activity = MIC<128 μg/ml
# Method: as §2, §3, §4, §5, §6, §7, §8, §9, §10
# Citrobacter freundii = test: in vitro MIC assay; type: cell-based; settings: activity = MIC<128 μg/ml
# Method: as §2, §3, §4, §5, §6, §7, §8, §9, §10
# Enterobacter aerogenes [8] = test: in vitro MIC assay; type: cell-based; settings: Klebsiella aerogenes, activity = MIC<128 μg/ml
# Method: as §2, §3, §4, §5, §6, §7, §8, §9, §10
# Shigella sonnei = settings: cited from earlier work
# S. Aureus = test: ED50 against S. Aureus; type: in vivo; settings: Staphylococcus aureus, route not stated
# Method: as §1
# [9] = kept at 37° C. for one month, cited from earlier work
# [10] = ATCC25922, intravenously (IV) at 1 and 5 hours after inoculation
# [11] = ATCC25922, orally (PO) at 1 and 5 hours after inoculation
Structure (SMILES),"ED50 [1, 10] [mg/kg]","ED50 [1, 11] [mg/kg]",reported as effective against organism (Pseudomonas fluorescens),reported as effective against organism (Escherichia coli),reported as effective against organism (Enterobacter sp.),reported as effective against organism (Pseudomonas aeruginosa),MIC (E. faecium),reported as effective against organism (Proteus rettgeri),reported as effective against organism (Salmonella typhimurium),reported as effective against organism (Salmonella enteriditis),reported as effective against organism (Salmonella typhi),reported as effective against organism (Shigella flexneri),reported as effective against organism (Proteus vulgaris),reported as effective against organism (Serratia marcescens),reported as effective against organism (Klebsiella pneumoniae),reported as effective against organism (Herellea vaginicola),reported as effective against organism (Mycobacterium smegmatis),reported as effective against organism (Staphylococcus aureus),further results
"CC1(C)S[C@@H]2[C@H](NC(=O)[C@H](N)c3ccccc3)C(=O)N2[C@H]1C(=O)O [Ampicillin, reference compound]",6.8,27.6,,,,,,,,,,,,,,,,,
"CN(CC(=O)O)NC(=O)C[C@H](N)CCCN [Deoxynegamycin, D-3,6-diaminiohexanoic acid-2-(carboxymethyl)-2-methylhyrazide]",4.8,,effective,effective,effective,effective,inactive,effective,effective,effective,effective,effective,effective,effective,effective,effective,effective,effective,reported as effective against organism (Proteius mirabilis): effective; reported as effective against organism [2]: effective; MIC [3]: exhibited activity; MIC [4]: exhibited activity; MIC (Haemophilus influenzae): exhibited activity; MIC [5]: exhibited activity; MIC (Streptococcus pyogenes): exhibited activity; MIC [6]: exhibited activity; MIC (Staphylococcus epidermis): exhibited activity; reported as effective against organism (Trichophyton tonsurans): effective; reported as effective against organism (Candida albicans): effective; reported as effective against organism (Cryptococcus neoformans): effective; reported as effective against organism (Enterobacter aerogenes [7]): effective
"CN(CC(=O)O)NC(=O)C[C@H](N)C[C@@H](O)CN [Negamycin, [2-{(3R,5R)-3,6-diamino-5-hydroxyhexanoyl}-1-methylhydrazino]acetic acid]",4.1,15.1,effective,effective,effective,effective,inactive,effective,effective,effective,effective,effective,effective,effective,effective,effective,effective,effective,reported as effective against organism (Salmonella typhosa): effective; MIC (Acinetobacter baumanii): < 128 µg/mL; MIC ([3]; read-out: MIC): < 128 µg/mL; MIC (Moraxella catarrhalis): < 128 µg/mL; MIC ([4]; read-out: MIC): < 128 µg/mL; MIC (Haemophilus influenzae; read-out: MIC): < 128 µg/mL; MIC (Helicobacter pylori): < 128 µg/mL; MIC ([5]; read-out: MIC): < 128 µg/mL; MIC (Streptococcus pyogenes; read-out: MIC): < 128 µg/mL; MIC ([6]; read-out: MIC): < 128 µg/mL; MIC (Citrobacter freundii): < 128 µg/mL; MIC (Enterobacter aerogenes [8]): < 128 µg/mL; MIC (Staphylococcus epidermis; read-out: MIC): < 128 µg/mL; reported as effective against organism (Shigella sonnei): effective; ED50 (S. Aureus): 16.8 mg/kg; activity reduced to ([9]; in 0.02N HCl aqueous solution): 50%; activity reduced to ([9]; in aqueous solution): 63%
